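Growth conditions: 96-well plates. Treatment: test compound, 48 hours, 5 concentrations. Analysis: linear interpolation between bracketing concentrations; unreached endpoints set to highest concentration. Abbreviation: GI50, concentration required for 50% inhibition of growth. The concentration for full growth arrest is given as TGI.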

Some test systems named below: MDA-N; MDA-MB-231 breast; MDA-MB-435; SK-MEL-2 melanoma; LOX IMVI melanoma; TK-10 renal; IGROV1 ovarian; UACC-257 melanoma; COLO 205 colon; RXF 393 renal.
Common to all, as to assay: NCI tumour cell line growth inhibition, 48 h

Take `CC(=O)N/N=C1\NN(C(C)=O)C2(S1)C(=O)Nc1ccccc12` (centres undefined): the TGI in the experiment on MDA-N, with MDA-MB-231 breast, in the experiment with MDA-MB-435, with SK-MEL-2 melanoma, in the experiment with LOX IMVI melanoma and in the experiment with TK-10 renal was above 100 µM throughout. Besides, in the experiment with IGROV1 ovarian, the TGI is above 100 µM.
With `CCCCCCCCCC[C@@H](O)[C@H]1CC[C@@H]([C@H]2CC[C@H]([C@H](O)CCCCCCCCCC[C@@H]3CC(CC(C)=O)C(=O)O3)O2)O1` (some centres undefined), the GI50 in the experiment with MDA-MB-231 breast is 22.8 µM; in the experiment on UACC-257 melanoma it was 3.23 µM; with SK-MEL-2 melanoma it was 21.5 µM; with COLO 205 colon, 15.6 µM; with LOX IMVI melanoma, 0.152 µM; with TK-10 renal, 26.9 µM. In addition, the TGI with MDA-MB-231 breast was above 100 µM; with UACC-257 melanoma it was 66.3 µM; in the experiment with MDA-MB-435 it was above 100 µM; in the experiment with SK-MEL-2 melanoma, 59.9 µM; with COLO 205 colon, 32.2 µM; in the experiment with LOX IMVI melanoma, 27.3 µM. Further, the TGI is 24.8 µM with RXF 393 renal, above 100 µM with TK-10 renal and above 100 µM in the experiment with IGROV1 ovarian.
`C=CC(=O)N1C/C(=C\c2ccc(F)cc2)C(=O)/C(=C/c2ccc(F)cc2)C1`: the TGI in the experiment on UACC-257 melanoma was determined as 6.05 µM; with MDA-MB-435, 1.29 µM; in the experiment with SK-MEL-2 melanoma, 2.69 µM; in the experiment with COLO 205 colon it was 1.81 µM; in the experiment on LOX IMVI melanoma, 0.415 µM; with RXF 393 renal it was 0.556 µM. Also, the results for the TGI with TK-10 renal and with IGROV1 ovarian were 2.84 µM and 1.38 µM, respectively.
`C=C1C(=O)OC2C1CC1OC2C(C)CCC/C(C)=C\CCC1(C)O` (centres undefined): the TGI stood at 72.8 µM in the experiment with UACC-257 melanoma; 32.7 µM in the experiment on SK-MEL-2 melanoma; 58.1 µM in the experiment with COLO 205 colon; 13.8 µM in the experiment on LOX IMVI melanoma; 17.9 µM in the experiment with RXF 393 renal; 49.5 µM in the experiment with IGROV1 ovarian.
As for `O=C1C(=O)C(CCCO)(CCCO)CCCCCCCCC1(CCCO)CCCO`, the TGI in the experiment with MDA-N, in the experiment on UACC-257 melanoma, with MDA-MB-435, with SK-MEL-2 melanoma, with COLO 205 colon and in the experiment on LOX IMVI melanoma was above 100 µM each time. Also, the values for the TGI in the experiment on RXF 393 renal, in the experiment with TK-10 renal and with IGROV1 ovarian were 68.8 µM, above 100 µM and above 100 µM, respectively.
Regarding `CC1(C)CN=C(c2ccc3ccccc3c2O)N1`, the TGI with MDA-N, in the experiment with MDA-MB-231 breast, in the experiment on UACC-257 melanoma, in the experiment on MDA-MB-435, in the experiment with SK-MEL-2 melanoma and with COLO 205 colon was above 100 µM each time. Besides, the TGI with LOX IMVI melanoma, with TK-10 renal and in the experiment on IGROV1 ovarian was above 100 µM throughout.
Consider `CCn1c2ccccc2c2cc(NC(=O)c3c(C)[nH]c(=O)[nH]c3=S)ccc21`, for which the TGI was above 100 µM in the experiment with MDA-N; 58.1 µM with MDA-MB-231 breast; above 100 µM with UACC-257 melanoma; 84 µM in the experiment on MDA-MB-435; above 100 µM with SK-MEL-2 melanoma; 46.3 µM in the experiment on COLO 205 colon. The TGI with LOX IMVI melanoma, with RXF 393 renal and in the experiment on TK-10 renal was above 100 µM each time.
Consider `CN1C(C(=O)Nc2ccccn2)=C(O)c2ccccc2S1(=O)=O`, for which the TGI with MDA-N, in the experiment with UACC-257 melanoma, in the experiment on MDA-MB-435, in the experiment with SK-MEL-2 melanoma, in the experiment with COLO 205 colon and with LOX IMVI melanoma was above 100 µM in each case. In addition, the TGI with RXF 393 renal and in the experiment with TK-10 renal was above 100 µM in each case.
Regarding `CCOc1cc(C=Nc2ccc(Oc3ccc(Cl)cc3)c(Cl)c2)ccc1O`, the TGI in the experiment with MDA-N was 61.7 µM; in the experiment on MDA-MB-231 breast, 42.1 µM; in the experiment on UACC-257 melanoma, 80.8 µM; in the experiment on MDA-MB-435, above 100 µM; with SK-MEL-2 melanoma it was 56.4 µM; with COLO 205 colon, 44.6 µM. Further, the TGI in the experiment on LOX IMVI melanoma was 39.9 µM; in the experiment with TK-10 renal it was above 100 µM; in the experiment on IGROV1 ovarian, 60.6 µM.
On to `Cc1cc2nnn(C3CCCO3)c2cc1C` (centres undefined), for which the TGI in the experiment on MDA-N, with MDA-MB-231 breast, with UACC-257 melanoma, in the experiment on MDA-MB-435, in the experiment with SK-MEL-2 melanoma and with COLO 205 colon was above 100 µM each time. The TGI in the experiment with RXF 393 renal, in the experiment on TK-10 renal and in the experiment on IGROV1 ovarian was above 100 µM throughout.
`O=C(c1ccccc1)c1ccc2c(c1)N=C(c1ccc(Cl)c(Cl)c1)CC(c1ccc3ccccc3c1)N2` (centres undefined): the TGI with UACC-257 melanoma, with SK-MEL-2 melanoma, in the experiment on COLO 205 colon, in the experiment with LOX IMVI melanoma, in the experiment with RXF 393 renal and with TK-10 renal was above 100 µM in each case. In the experiment with IGROV1 ovarian, this molecule registered a TGI above 100 µM.
On to `O.O=[Se](=O)(O)O.[NH-]C1CCCCC1[NH-].[Pt+2]` (centres undefined), for which the GI50 in the experiment on UACC-257 melanoma was 46.4 µM; in the experiment with SK-MEL-2 melanoma, 22.9 µM; in the experiment on COLO 205 colon it was 5.82 µM; in the experiment on LOX IMVI melanoma, 8.21 µM; in the experiment with RXF 393 renal, 4.63 µM; in the experiment on IGROV1 ovarian, 7.98 µM. Moreover, the TGI in the experiment with UACC-257 melanoma was above 100 µM; in the experiment on SK-MEL-2 melanoma it was above 100 µM; in the experiment with COLO 205 colon, 67.8 µM; with LOX IMVI melanoma, above 74.7 µM; in the experiment with RXF 393 renal, 30.5 µM; in the experiment on IGROV1 ovarian, above 100 µM.
As to `CC1Oc2c(c(O)cc3oc(=O)cc(-c4ccccc4)c23)C(=O)C1C` (centres undefined), the TGI in the experiment with SK-MEL-2 melanoma, in the experiment on COLO 205 colon, in the experiment on LOX IMVI melanoma, in the experiment on TK-10 renal and with IGROV1 ovarian was above 100 µM each time.
Turning to `O=c1[nH]nc(Cc2ccc([N+](=O)[O-])cc2)[nH]1`, the TGI in the experiment on MDA-N, with UACC-257 melanoma, with MDA-MB-435, in the experiment on SK-MEL-2 melanoma, in the experiment on COLO 205 colon and with LOX IMVI melanoma was above 100 µM in each case. Besides, the TGI in the experiment on RXF 393 renal, in the experiment with TK-10 renal and in the experiment on IGROV1 ovarian was above 100 µM throughout.
Regarding `O=C(O)C1(Cc2ccc3c(c2)CCC3)Cc2cc3c(cc2C1)CCC3`, the TGI in the experiment with MDA-N, with MDA-MB-435, in the experiment on SK-MEL-2 melanoma, in the experiment with COLO 205 colon, with LOX IMVI melanoma and in the experiment on TK-10 renal was above 100 µM in each case. Besides, the TGI with IGROV1 ovarian was above 100 µM.

The values are drawn from PubChem BioAssay (NCI).
